Consider one compound from article PMC5588548, “Suramin Inhibits Osteoarthritic Cartilage Degradation by Increasing Extracellular Levels of Chondroprotective Tissue Inhibitor of Metalloproteinases 3” (Molecular Pharmacology, 2017).

For data set [1], the system named is HTB94 chondrosarcoma cells. It is filed as cell-based. To be noted: after 8 hours; TIMP-3 1 nM preincubated with suramin 200 µg/ml; HTB94 cells. On the procedure:
(§1) Cells (HTB94 chondrosarcoma cells, primary porcine chondrocytes, or human osteoarthritic chondrocytes) were plated overnight (6 × 10^5 cells per well of a 12-well plate) in DMEM containing 10% FCS and washed three times in serum-free DMEM.
To evaluate endocytosis of exogenously added TIMP-3, cells were incubated with recombinant TIMP-3 (1 nM in 1.5 ml DMEM with 0.1% FCS) for 0–24 hours. Conditioned media were concentrated by precipitation with trichloroacetic acid [5% (v/v), 4°C, 18 hours]. After centrifugation (13,000 rpm, 4°C, 10 minutes), protein-containing pellets were resuspended in SDS sample buffer (30 µl), electrophoresed (7 µl) on a 10% polyacrylamide gel, and immunoblotted onto polyvinylidene fluoride. After blocking in 5% (m/v) BSA in Tris-buffered saline, TIMP-3 levels were analyzed using an M2 anti-FLAG antibody (Sigma-Aldrich), an alkaline phosphatase–conjugated anti-mouse secondary antibody (Promega, Southampton, UK), and a Western Blue stabilized substrate for alkaline phosphatase (Promega). Immunoblots were analyzed by densitometry using Phoretix 1D densitometry software (TotalLab, Newcastle-upon-Tyne, UK), and TIMP-3 remaining in the medium (mean ± S.D., n = 3) was calculated relative to pixel volume at a t of 0 hours (defined as 100%).

Data set [2] concerns HTB94 chondrosarcoma cells. The data set can be described thus: Accumulation of endogenous TIMP-3 in medium of HTB94 cells. It is filed as cell-based. To be noted: suramin 50–200 µg/ml, 30 hours. On the procedure:
as §1
Media were harvested, precipitated with trichloroacetic acid, and analyzed by immunoblotting using a rabbit anti–TIMP-3 polyclonal antibody (AB6000; Millipore, Hertfordshire, UK) and an alkaline phosphatase–conjugated anti-rabbit secondary antibody (Promega). […]

Data set [3] concerns primary chondrocytes isolated from human OA cartilage. The data set can be described thus: Accumulation of endogenous TIMP-3 in medium of human OA chondrocytes. It is filed as cell-based. To be noted: suramin 0–250 µg/ml, 48 hours. On the procedure:
(§2) Cells (HTB94 chondrosarcoma cells, primary porcine chondrocytes, or human osteoarthritic chondrocytes) were plated overnight (6 × 10^5 cells per well of a 12-well plate) in DMEM containing 10% FCS and washed three times in serum-free DMEM. […] Media were harvested, precipitated with trichloroacetic acid, and analyzed by immunoblotting using a rabbit anti–TIMP-3 polyclonal antibody (AB6000; Millipore, Hertfordshire, UK) and an alkaline phosphatase–conjugated anti-rabbit secondary antibody (Promega). TIMP-3 in the medium (mean ± S.D., n = 3) was calculated relative to the pixel volume of untreated cells (defined as 1).

For data set [4], the system named is primary chondrocytes isolated from normal porcine cartilage. Kind of data set: Accumulation of endogenous TIMP-3 in medium of porcine chondrocytes. It is filed as cell-based. Particulars: suramin 0–250 µg/ml, 48 hours. How it is done:
as §2

Data set [5] concerns TIMP-1 mRNA. Kind of data set: TIMP-1 mRNA analysis in HTB94 cells (quantitative PCR). It is filed as cell-based. To be noted: suramin 0–250 µg/ml, 18 hours. On the procedure:
(§3) HTB94 chondrosarcoma cells or primary human chondrocytes (1 × 10^6 cells) were treated in triplicate with 0–250 µg/ml suramin in serum-free DMEM for 18–48 hours. Total RNA was isolated from cells using an RNeasy mini kit (Qiagen, Crawley, UK) and cDNA was synthesized (reverse transcriptase kit; Applied Biosystems, Foster City, CA). Levels of TIMP-1, TIMP-2, TIMP-3, LRP1, and RPLP0 internal reference mRNA were quantified by real-time polymerase […] chain reaction on a Corbett Rotor-Gene 6000 (Corbett Life Science, Mortlake, NSW, Australia) using TaqMan Fast Universal PCR Master Mix (Applied Biosystems) and TaqMan probes (Applied Biosystems) Hs01092512_g1 for TIMP-1, Hs00234278_m1 for TIMP-2, Hs00165949_m1 for TIMP-3, Hs00233856_m1 for LRP1, and Hs99999902_m1 for RPLP0. The ΔΔ threshold cycle values (mean ± S.D., n = 3 technical replicates) are shown relative to control untreated HTB94 cells (defined as 1).

In data set [6] the test system is TIMP-2 mRNA. The data set can be described thus: TIMP-2 mRNA analysis in HTB94 cells (quantitative PCR). It is filed as cell-based. Particulars: suramin 0–250 µg/ml, 18 hours. How it is done: as §3
The subject of data set [7] is TIMP-3 mRNA. Kind of data set: TIMP-3 mRNA analysis in human OA chondrocytes (quantitative PCR). It is filed as cell-based. To be noted: suramin 0–250 µg/ml, 48 hours. How it is done: as §3
Data set [8] deals with human OA chondrocytes. The data set can be described thus: Cell viability assay (MTS), human OA chondrocytes. It is filed as cell-based. Particulars: suramin 0–250 µg/ml, 48 hours. On the procedure: HTB94 chondrosarcoma cells or human OA chondrocytes (10^3 cells per well in 96-well plates) were plated overnight in DMEM with 10% FCS. Cells were washed in serum-free cartilage medium and treated for 48–72 hours with suramin (0–250 µg/ml) or sodium nitroprusside (10 mM) as a control to induce cell death. Cell viability was then assessed using the 3-(4,5-dimethylthiazol-2-yl)-5-(3-carboxymethoxyphenyl)-2-(4-sulfophenyl)-2H-tetrazolium CellTiter Cell Proliferation Assay (Promega) according to the manufacturer’s instructions (mean ± S.D., n = 3).

Data set [9] concerns human OA cartilage explants. Kind of data set: Aggrecan release from human OA cartilage explants (DMMB assay). It is filed as cell-based. Particulars: 48 hours. On the procedure: The effects of suramin on cartilage degradation were assessed using porcine or human cartilage explants. Explants were rested for 48 hours after dissection and were washed with serum-free DMEM. Explants were then treated with retinoic acid (1 µM; Sigma-Aldrich), interleukin (IL)-1 (10 ng/ml; Peprotech, London, UK), and/or suramin (0–250 µg/ml) in serum-free DMEM for 48 hours.
Aggrecan degradation was analyzed by quantifying aggrecan fragments released into the conditioned media using the dimethylmethylene blue (DMMB) dye-binding assay ([Farndale et al., 1986]) (mean ± S.D., n = 3) and by immunoblotting with neo-epitope antibodies that recognize ADAMTS-cleaved but not intact aggrecan. For immunoblotting, conditioned media were deglycosylated by adding an equal volume of 200 mM sodium acetate and 50 mM Tris/HCl, pH 6.8, containing chondroitinase and β-endoglycosidase (0.05 U each; 18 hours, 37°C; Sigma-Aldrich). Aggrecan fragments were precipitated by adding five volumes of ice-cold acetone (18 hours, −20°C). After centrifugation (13,000 rpm, 10 minutes, 4°C), pellets were resuspended in SDS sample buffer, separated by electrophoresis on a 6% (v/v) polyacrylamide gel, and blotted onto polyvinylidene fluoride. […]

Data set [10] relates to rat inflammatory arthritis model. Details: method as in Sahu et al., 2012. Particulars: ref Sahu et al., 2012; cited from earlier work.

In brackets after ≈: the same amount, converted by molar mass.

By IC50 is commonly meant the point on the concentration scale where inhibition reaches its midpoint. On to `Cc1ccc(C(=O)Nc2ccc(S(=O)(=O)O)c3cc(S(=O)(=O)O)cc(S(=O)(=O)O)c23)cc1NC(=O)c1cccc(NC(=O)Nc2cccc(C(=O)Nc3cc(C(=O)Nc4ccc(S(=O)(=O)O)c5cc(S(=O)(=O)O)cc(S(=O)(=O)O)c45)ccc3C)c2)c1` [suramin], for which the “TIMP-3 remaining in the medium” value in [1] is given as “more than 85%”. Further, in data set [2], the “endogenous TIMP-3 in the medium” value was “accumulated”. For the same compound, the “endocytosis of endogenously expressed TIMP-3” value in data set [3] and in data set [4] was “inhibited endocytosis” throughout. In addition, the “TIMP-1 mRNA levels” value in [5] is given as “no effect”. For the same compound, in [6], the “TIMP-2 mRNA levels” value is on record as “no effect”. In addition, the “TIMP-3 mRNA levels” value in [7] is reported as “without any significant change”. The entries for the “cell viability (MTS)” value in [8] and in data set [8] (listed as Suramin) were “did not affect” and “without any significant change”, respectively. In data set [9] (human OA cartilage explants stimulated with IL-1 10 ng/ml or retinoic acid 1 µM), the aggrecan degradation result was “dose-dependently inhibited”. Further, in data set [9] (human OA cartilage explants, retinoic acid 1 µM, read-out: IC50 for inhibition of aggrecan degradation), the IC50 was found to be 62 ± 16 mg/L (≈ 47.8 µM). For the same compound, in [10], the cartilage damage entry is recorded as “ameliorate cartilage damage”.
